According to publication PMC3620930 (Molecular oral microbiology, 2012):

How the values were obtained:
Assay in all cases: inhibition of amidolytic activity
Assay type in all cases: biochemical
[1] = target: Lys-gingipain (Porphyromonas gingivalis, UniProt P72197)
[2] = target: RgpB (Porphyromonas gingivalis, UniProt P95493)
[3] = target: HRgpA (Porphyromonas gingivalis, UniProt P28784)

SMILES	Ki [1] [µM]	Ki [2] [µM]	Ki [3] [µM]
N=C(N)c1ccc(OCCCCCOc2ccc(C(=N)N)cc2)cc1 [pentamidine]	> 1000	40.3	107
N=C(N)c1ccc(CC2CCCC(Cc3ccc(C(=N)N)cc3)C2=O)cc1 (stereo not drawn) [2,6-bis-(4-amidinobenzyl)-cyclohexanone]	> 1000	0.51	2.9
N=C(N)c1ccccc1 [benzamidine]	> 1000	277	536
